# Reference: a melting point compilation (Tetko et al.; mined from patent text by program, amines drawn as free bases though some values may be those of a salt)
# Residues, ends and D or L forms follow the SMILES beside them. *: point of attachment. Cbz = O=C(OCc1ccccc1)*
row,melting point,SMILES
1,152 °C,O=[N+]([O-])c1ccccc1COc1cccc2cccnc12
2,298 to 300 °C,CCOC(=O)c1cc2c(cn1)[nH]c1cccc(Oc3ccc([N+](=O)[O-])cn3)c12
3,122 to 123 °C,COc1ccc2c(c1)OCC21C(=O)N(Cc2ccccn2)c2ccccc21 (configuration not stated)
4,100 to 101 °C,CCN1CCN(C2=Nc3cc(Cl)ccc3Oc3ccccc32)CC1
5,100 to 105 °C,N=C(N)NCCc1ccc(OCCC2Oc3ccccc3N(Cc3cccc(OCc4ccccc4)c3)C2=O)cc1 (configuration not stated)
6,154 to 155 °C,O=C(NCCOc1ccc(CC(Oc2ccc(C(F)(F)F)cc2)C(=O)O)cc1)c1ccc(-c2ccccn2)cc1 (configuration not stated)
7,112 to 115 °C,Cc1onc(-c2ccc(-c3cscn3)cc2)c1-c1ccc(S(N)(=O)=O)cc1
8,183 to 184 °C,O=C(OCC1OC(n2cnc3c(N(C(=O)c4ccccc4)C(=O)c4ccccc4)ncnc32)C(O)(C(=O)c2ccccc2)C1(O)C(=O)c1ccccc1)c1ccccc1 (configuration not stated)
9,131 °C,COC(=O)C(C)(C)OCc1cc2nc(Cl)ccc2n1S(=O)(=O)c1ccc2c(c1)OCO2
10,146 to 148 °C,CC(C)(C)OC(=O)NN(Cc1ccc(-c2cnccn2)cc1)C[C@H](O)[C@@H](N)Cc1ccccc1
11,106 °C,OC(=S)Cc1cccc2ccccc12
12,240 to 244 °C,COc1ccc(Cn2c(N)c(NC(=O)C(C)C)c(=O)[nH]c2=S)cc1OCc1ccccc1
13,179 to 180 °C,COc1ccc(OCC2(Cc3c(C)nc(OC)c(C(C)C)c3C(=O)c3cc(C)cc(C#N)c3)CC2)cc1
14,118 °C,COC(=O)C(CC(C)C)NCC(=O)n1c(=O)cc(-c2ccccc2)c2cc(C(c3ccc(Cl)cc3)n3ccnc3)ccc21 (configuration not stated)
15,124 to 127 °C,CCOC(=O)c1ccc(NCCOc2cccc3ccccc23)cc1
16,118 to 120 °C,COc1ccc2[nH]c(C(=O)c3ccccc3)c(NC(C)=O)c2c1OC
17,230 °C,Nc1ccccc1NC(=O)c1ccc(CNc2c(NCc3cccnc3)c(=O)c2=O)cc1
18,142 to 145 °C,N#Cc1ccc(OCCCCCOc2cccc(-c3cc4cc(C#N)ccc4o3)c2)cc1
19,200 to 201 °C,CONC(=O)c1cc(C(=O)OC)c(O)c2ncc(Cc3ccc(F)cc3)cc12

row,melting point,SMILES
1,282 to 285 °C,COc1cc(C(=O)NCC(=O)O)ccc1NS(=O)(=O)c1sc2ccc(Cl)cc2c1C
2,158 to 160 °C,CCN1C=C(N=[N+]=[N-])N=C(C2CC2)c2ccccc21
3,61 °C,CCc1noc(-c2cn(-c3ccccc3OCCc3ccccc3)cn2)n1
4,139 °C,O=S(=O)(Cl)c1ccc(SSc2ccc(S(=O)(=O)Cl)cc2)cc1
5,113 to 114 °C,CON=C(c1ccccc1COc1ccc(Cl)cc1)c1ncnn1C
6,122 to 124 °C,O=C1C(Cl)=C(N2CCN(S(=O)(=O)c3ccccc3C(F)(F)F)CC2)C(=O)c2ccccc21
7,178 to 179 °C,CCOC(=O)c1c(CCl)nc2sc3c(c2c1-c1ccc(OC)c(OC)c1)CCCN3C(=O)OCc1ccccc1
8,72 to 74 °C,Cc1noc(C2CN=CN(C(c3ccccc3)(c3ccccc3)c3ccccc3)C2)n1 (configuration not stated)
9,77 to 78 °C,C=C(F)Cc1ccc(OC)cc1OCc1ccccc1
10,> 300 °C,CCOC(=O)c1ccc(-c2cc3c(Nc4ccc(F)c(Cl)c4)ncnc3[nH]2)cc1
11,109 to 110 °C,Oc1cccnc1Oc1cccc(Cl)c1
12,130 to 131 °C,Cc1noc2nc(-c3ccccc3)cc(Cl)c12
13,131 to 132 °C,CCNC(=O)CC(c1ccc(OC)c(OC)c1)N1C(=O)c2ccccc2C1=O (configuration not stated)
14,133 to 134 °C,O=c1oc(-c2ccccc2)cc(O)c1SCCc1cccc(Cl)c1
15,128 to 130 °C,COCCNc1cc(Cl)nc(-c2ccccc2)n1
16,235 to 238 °C,NCc1nc(-c2ncn3c2[C@@H]2CCN2C(=O)c2sccc2-3)no1
17,190 to 192 °C,CCC1(Cl)C(=O)c2c(cc(OCC(=O)O)c(Cl)c2Cl)C1c1ccccc1 (configuration not stated)
18,71 °C,COC(=O)c1ccc(C(=O)CC(=O)OCc2ccccc2)cc1
19,85 to 86 °C,COc1ccc(C(=O)c2c(Cc3ccccc3)sc(C)c2C)cc1

row,melting point,SMILES
1,167 to 171 °C,c1ccc(C(OC2CCN(CCCOc3ccc(-c4nnn[nH]4)cc3)CC2)c2ccccc2)cc1
2,139 to 141 °C,CCCCOCC(COCc1ccccc1)OCn1cnc2c(O)nc(NC(C)=O)nc21 (configuration not stated)
3,74 to 80 °C,CCCCC1=NC2(CCCC2)C(=O)N1Cc1ccc(-c2ccccc2S(=O)(=O)Nc2onc(C)c2C)c(COCC)c1
4,129 to 131 °C,CCNc1cccnc1N1CCN(C(=O)c2ccc(C(=O)NCc3ccccn3)cn2)CC1
5,194 to 195 °C,C=Cc1cnc2c(NC(=O)c3c(Cl)cccc3Cl)cccc2c1CC(=O)NCc1ccccn1
6,177 to 180 °C,CC(C)(C)c1ccc(S(=O)(=O)Oc2ccc(C(c3ccc(OS(=O)(=O)c4ccc(C(C)(C)C)cc4)cc3)(C(F)(F)F)C(F)(F)F)cc2)cc1
7,215 to 216 °C,Cc1c(C(=O)Nc2ccc(N3CCC(O)CC3)c(C#N)c2)cnn1-c1ccc(F)cc1
8,55 to 57 °C,CCCCCCCCCCCCCc1ccc(-c2nc(-c3ccccc3Cl)nn2C)cc1
9,281 to 282 °C,COc1cc2c(cc1S(=O)(=O)c1ccc(Br)cc1)[C@@H](N1CCCC1=O)[C@H](O)C(C)(C)O2 (relative stereo)
10,> 350 °C,O=c1c2c[nH]c3c(c-2nn1-c1ccccc1)CCC3
11,245 to 248 °C,CC(C)(C)c1ccc(-c2nn3c(=O)c([N+](=O)[O-])c(Cl)nc3s2)cc1
12,173 to 175 °C,COC(=O)c1ccc(NC(=O)[C@H](Cc2ccccc2)NC(=O)OC(C)(C)C)cc1
13,195 to 198 °C,O=C(Nc1ccc(Oc2ccccc2)cc1)Nc1sccc1C(=O)O
14,245 to 248 °C,C[C@H](NC(=O)c1ccccc1)C(=O)N[C@@H](C)C(=O)Nc1ccccc1
15,145 to 146 °C,Cc1ccnc(C(C#N)Sc2nc(N)cc(Cl)n2)c1 (configuration not stated)
16,91 to 93 °C,COC(=O)[C@H](Cc1ccccc1)NC(=O)[C@H](CC(C)C)NC(=O)OCc1ccccc1 (Cbz-Leu-Phe-OMe)
17,138 to 140 °C,Cc1cc(Oc2ccc(S(C)(=O)=O)nc2)ccc1[N+](=O)[O-]
18,127 to 129 °C,COc1cc2c(c3c1OC(C)(C)C3)C(c1cccc(Br)c1)=NCC2(C)C

# Continued, compound first:
row,SMILES,melting point
1,CC(C)(C)NS(=O)(=O)c1c[nH]c2ccccc12,157 to 158 °C
2,CCC(=O)c1ccc(=O)[nH]c1CC,138 to 140 °C
3,COCCN1CCc2cc(Nc3ncc(Cl)c(Nc4ccc(C(N)=O)cc4OC)n3)c(OC)cc2CC1,100 to 112 °C
4,CCOC(=O)Cn1nc(-c2cc(C(C)(C)C)c(O)c(C(C)(C)C)c2)c2cccnc21,117 to 120 °C
5,O=C(O)C(CC1CCCC1)c1cccc([N+](=O)[O-])c1 (configuration not stated),95 to 99 °C
6,O=C(O)c1ccc(C#CC2(O)CN3CCC2CC3)cc1 (configuration not stated),288 to 290 °C
7,O=C(O)C1CCCCCCCSC[C@@H](C(=O)O)NC1=O (some centres not stated),167 to 170 °C
8,O=C1c2c(Br)cccc2-n2cnc(I)c2[C@@H]2CCCN12,301 to 303 °C
9,CC(C)(C)n1ncc(C(=O)O)c1Cl,132 to 134 °C
10,CCC(C)(C)NC(=O)C(=O)c1ccccc1,29 to 30 °C
11,OCC1OC(n2cnc3c2ncn2ccnc32)CC1O (configuration not stated),138 to 141 °C
12,CC(C)n1c(=O)[nH]c(C(F)(F)F)c(Br)c1=O,149 to 150 °C
13,O=C(O)c1cc(Br)cc2c1NCCS2(=O)=O,250 to 251 °C
14,CC(=O)NCCC1CCc2ccc3nc(C)oc3c21 (configuration not stated),93 to 95 °C
15,CCOCc1nc2c(Cl)nc(C)c(C)c2n1NC1CCOCC1,137 to 139 °C
16,CC(=O)NC1(c2ccccc2Cl)CCC=CC1=O (configuration not stated),144 to 145 °C
17,COC(=O)C1CC(C#N)(c2ccc(Cl)cc2)CCC1=O (configuration not stated),141 to 144 °C
18,COc1cc(-c2cnc3[nH]cc(C(=O)C4(C)CCCC(C)C4)c3n2)cc(OC)c1OC (configuration not stated),229 to 231 °C
19,CC1Cc2c(cc(C(C)(C)C)c(O)c2C(C)(C)C)S1 (configuration not stated),96.7 °C
20,NS(=O)(=O)c1ncccc1F,124 to 125 °C
21,CCCc1c(OCCCCCCc2ccc(C(C)C)c(OC)c2OC)ccc(C(=O)O)c1O,106 to 108 °C

row,SMILES,melting point
1,Nc1c(Cl)cc(C(=O)NC2CCN(CCO)CC2)c2c1CCO2,186 °C
2,O=C(C1CC1)N1CCC(C2CCc3ccc(O)cc32)CC1 (configuration not stated),75 to 82 °C
3,CCCc1nc2c(N)nc(C)c(C)c2n1CC1(O)CCCCC1,214 to 216 °C
4,CS(=O)(=O)ON=C(Cl)c1ccc(Cl)cc1,80 to 82 °C
5,CC(C)(C)c1cc(C(=O)C2CC2)cc(C(C)(C)C)c1O,140 to 142 °C
6,c1ccc(CSc2ncccc2C2=NOCC2)cc1,97 to 98 °C
7,COc1cc(Cc2cnc(N)nc2N)c2c(c1OC)OCC=C2,232 to 234 °C
8,COCCNC(=O)c1n[nH]c2c(=O)[nH]c3cc(Cl)ccc3c(=O)c12,287 to 291 °C
9,CC1(C)OC(C=Cc2ccc(C(F)(F)F)cc2)=CC1=O,94 to 95 °C
10,C#CCOC(=O)C1=C(N)NC(N)=C(C(=O)OCC#C)C1c1cccc([N+](=O)[O-])c1,170 °C
11,COc1cccc(Nc2c([N+](=O)[O-])cc(C(=O)O)cc2S(N)(=O)=O)c1,253 to 254 °C
12,O=C(Cc1ccc(Cl)cc1)N1CCCCC1,85 to 85.5 °C
13,O=S1CC2CC(CN(Cc3ccccc3)C2)C1 (configuration not stated),137 to 138 °C
14,Cc1cc(Br)ccc1NC(=O)CC(=O)O,163 to 165 °C
15,Cc1nnc(C=Cc2ccccc2OCC(O)CNC(C)(C)C)s1 (configuration not stated),110 to 112 °C
16,C=C1CC2C(=CCC3(C)C2CC(C)C3(OC(C)=O)C(C)=O)C2(C)CCC(=O)C=C12 (configuration not stated),197 to 198 °C
17,CC(=O)Nc1ccc(/C=C/C(=O)NCC(=O)N(C)c2ccc(C)c(CCl)c2C)cn1,218 to 220 °C
18,CNC(=O)CCNC(=O)NOCCCl,125 to 126 °C
19,COc1cc(OC)nc(Sc2sccc2NS(=O)(=O)C(F)(F)F)n1,103 to 104 °C
20,CC(C)(C)NCC(O)c1ccc(O)c(NC=O)c1 (configuration not stated),195 to 196 °C
